From paper PMC6321124, “Hydrophilic Linear Peptide with Histidine and Lysine Residues as a Key Factor Affecting Antifungal Activity” (International Journal of Molecular Sciences, 2018) come the findings set out here.

Structures are written as SMILES. ≈ marks a conversion by molar mass, not a printed value. Residues, ends and D or L forms follow the SMILES beside them.

Assay [1] deals with F. solani (KCTC 6326). The note with it: KCTC 6326, 48 h, pH 6.
The subject of assay [2] is C. krusei (CCARM 14017). The note with it: CCARM 14017, 48 h, pH 6.
Assay [3] has as its system C. albicans (CCARM 14020, fluconazole-resistant strain). The note with it: CCARM 14020, 48 h, pH 6.
Assay [4] relates to C. parapsilosis (CCARM 14016). The note with it: CCARM 14016, 48 h, pH 6.
For assay [5], the system named is C. albicans (CCARM 14004, fluconazole-resistant strain). The note with it: CCARM 14004, 48 h, pH 6.
The test system of assay [6] is C. albicans (CCARM 14007, amphotericin B-resistant strain). The note with it: CCARM 14007, 48 h, pH 6.
The subject of assay [7] is Aspergillus flavus (KCTC 6905). The note with it: KCTC 6905, 48 h, pH 6.
The subject of assay [8] is C. gloeosporioides (KCTC 6169). The note with it: KCTC 6169, 48 h, pH 6.
The subject of assay [9] is C. albicans (KCTC 7270). The note with it: KCTC 7270, 48 h, pH 6.
Assay [10] has as its system F. moniliforme (KCTC 6149). The note with it: KCTC 6149, 48 h, pH 6.
The test system of assay [11] is Tricophyton rubrum (KCTC 6345). The note with it: KCTC 6345, 48 h, pH 6.
The test system of assay [12] is F. graminearum (KCTC 16656). The note with it: KCTC 16656, 48 h, pH 6.
Assay [13] concerns F. oxysporum (KCTC 16909). The note with it: KCTC 16909, 48 h, pH 6.
For assay [14], the system named is Trichoderma viride (KCTC 16992). The note with it: KCTC 16992, 48 h, pH 6.
Assay [15] has as its system Trichoderma virens (KCTC 16924). The note with it: KCTC 16924, 48 h, pH 6.
Assay [16] relates to C. albicans (CCARM 14001, fluconazole-resistant strain). The note with it: CCARM 14001, 48 h, pH 6.

One may read the MIC as the least concentration at which growth counts as inhibited. Read a low MIC as inhibition by little substance. Turning to `NCCCC[C@H](NC(=O)[C@H](CCCCN)NC(=O)[C@H](Cc1c[nH]cn1)NC(=O)[C@H](CCCCN)NC(=O)[C@H](CCCCN)NC(=O)[C@H](Cc1c[nH]cn1)NC(=O)[C@H](CCCCN)NC(=O)[C@H](CCCCN)NC(=O)[C@H](Cc1c[nH]cn1)NC(=O)[C@H](CCCCN)NC(=O)[C@H](CCCCN)NC(=O)[C@@H](N)Cc1c[nH]cn1)C(N)=O` [(HKK)4] (H-HKKHKKHKKHKK-NH2), the MIC in assay [1] is 4 µM (≈ 6.36 µg/mL); in assay [2] it was 4 µM (≈ 6.36 µg/mL); in [3] it was 32 µM (≈ 50.9 µg/mL); in assay [4] it was 32 µM (≈ 50.9 µg/mL); in assay [5] it was 32 µM (≈ 50.9 µg/mL); in [6] it was 32 µM (≈ 50.9 µg/mL). Moreover, the MIC came out at 8 µM (≈ 12.7 µg/mL) in assay [7]; 2 µM (≈ 3.18 µg/mL) in [8]; 32 µM (≈ 50.9 µg/mL) in [9]; 4 µM (≈ 6.36 µg/mL) in [10]; 16 µM (≈ 25.5 µg/mL) in assay [11]; 16 µM (≈ 25.5 µg/mL) in assay [12]. Moreover, the MIC is on record as 4 µM (≈ 6.36 µg/mL) in assay [13], 4 µM (≈ 6.36 µg/mL) in assay [14], 16 µM (≈ 25.5 µg/mL) in assay [15] and 32 µM (≈ 50.9 µg/mL) in [16].

On to `NCCCC[C@H](NC(=O)[C@H](CCCCN)NC(=O)[C@H](Cc1c[nH]cn1)NC(=O)[C@H](CCCCN)NC(=O)[C@H](CCCCN)NC(=O)[C@@H](N)Cc1c[nH]cn1)C(N)=O` [(HKK)2] (H-HKKHKK-NH2), for which the MIC in [1] is on record as 32 µM (≈ 25.7 µg/mL); in assay [2], 64 µM (≈ 51.5 µg/mL); in assay [3] it was 64 µM (≈ 51.5 µg/mL); in [4], 64 µM (≈ 51.5 µg/mL); in assay [5], 64 µM (≈ 51.5 µg/mL); in assay [6], 64 µM (≈ 51.5 µg/mL). The MIC was 64 µM (≈ 51.5 µg/mL) in [7]; 16 µM (≈ 12.9 µg/mL) in assay [8]; 64 µM (≈ 51.5 µg/mL) in [9]; 32 µM (≈ 25.7 µg/mL) in [10]; 64 µM (≈ 51.5 µg/mL) in [11]; 64 µM (≈ 51.5 µg/mL) in assay [12]. The MIC was 64 µM (≈ 51.5 µg/mL) in assay [13], 64 µM (≈ 51.5 µg/mL) in [14], 32 µM (≈ 25.7 µg/mL) in assay [15] and 64 µM (≈ 51.5 µg/mL) in [16].

For the compound `NCCCC[C@H](NC(=O)[C@H](CCCCN)NC(=O)[C@H](Cc1c[nH]cn1)NC(=O)[C@H](CCCCN)NC(=O)[C@H](CCCCN)NC(=O)[C@H](Cc1c[nH]cn1)NC(=O)[C@H](CCCCN)NC(=O)[C@H](CCCCN)NC(=O)[C@H](Cc1c[nH]cn1)NC(=O)[C@H](CCCCN)NC(=O)[C@H](CCCCN)NC(=O)[C@H](Cc1c[nH]cn1)NC(=O)[C@H](CCCCN)NC(=O)[C@H](CCCCN)NC(=O)[C@H](Cc1c[nH]cn1)NC(=O)[C@H](CCCCN)NC(=O)[C@H](CCCCN)NC(=O)[C@H](Cc1c[nH]cn1)NC(=O)[C@H](CCCCN)NC(=O)[C@H](CCCCN)NC(=O)[C@H](Cc1c[nH]cn1)NC(=O)[C@H](CCCCN)NC(=O)[C@H](CCCCN)NC(=O)[C@@H](N)Cc1c[nH]cn1)C(N)=O` [(HKK)8] (H-HKKHKKHKKHKKHKKHKKHKKHKK-NH2), the MIC is on record as 1 µM (≈ 3.16 µg/mL) in assay [1]; 4 µM (≈ 12.7 µg/mL) in assay [2]; 8 µM (≈ 25.3 µg/mL) in assay [3]; 8 µM (≈ 25.3 µg/mL) in assay [4]; 8 µM (≈ 25.3 µg/mL) in assay [5]; 8 µM (≈ 25.3 µg/mL) in assay [6]. Moreover, the MIC in [7] is 2 µM (≈ 6.33 µg/mL); in [8], 1 µM (≈ 3.16 µg/mL); in assay [9] it was 8 µM (≈ 25.3 µg/mL); in [10], 2 µM (≈ 6.33 µg/mL); in assay [11], 2 µM (≈ 6.33 µg/mL); in [12] it was 4 µM (≈ 12.7 µg/mL). Further, the MIC in assay [13] was determined as 2 µM (≈ 6.33 µg/mL); in [14] it was 1 µM (≈ 3.16 µg/mL); in [15], 4 µM (≈ 12.7 µg/mL); in assay [16], 8 µM (≈ 25.3 µg/mL).

With `NCCCC[C@H](NC(=O)[C@H](CCCCN)NC(=O)[C@H](Cc1c[nH]cn1)NC(=O)[C@H](CCCCN)NC(=O)[C@H](CCCCN)NC(=O)[C@H](Cc1c[nH]cn1)NC(=O)[C@H](CCCCN)NC(=O)[C@H](CCCCN)NC(=O)[C@@H](N)Cc1c[nH]cn1)C(N)=O` [(HKK)3] (H-HKKHKKHKK-NH2), the MIC is given as 16 µM (≈ 19.2 µg/mL) in assay [1]; 16 µM (≈ 19.2 µg/mL) in assay [2]; 64 µM (≈ 76.6 µg/mL) in assay [3]; 32 µM (≈ 38.3 µg/mL) in [4]; 64 µM (≈ 76.6 µg/mL) in [5]; 64 µM (≈ 76.6 µg/mL) in assay [6]. For the same compound, the MIC in assay [7] is 16 µM (≈ 19.2 µg/mL); in [8], 8 µM (≈ 9.58 µg/mL); in assay [9], 64 µM (≈ 76.6 µg/mL); in [10], 16 µM (≈ 19.2 µg/mL); in [11], 32 µM (≈ 38.3 µg/mL); in [12], 32 µM (≈ 38.3 µg/mL). Besides, the MIC in assay [13] is 32 µM (≈ 38.3 µg/mL); in [14], 16 µM (≈ 19.2 µg/mL); in assay [15] it was 16 µM (≈ 19.2 µg/mL); in [16], 64 µM (≈ 76.6 µg/mL).

As for `NCCCC[C@H](NC(=O)[C@H](CCCCN)NC(=O)[C@@H](N)Cc1c[nH]cn1)C(N)=O` [(HKK)1] (H-His-Lys-Lys-NH2), the MIC in assay [1] was found to be 256 µM (≈ 105 µg/mL); in assay [2], 512 µM (≈ 210 µg/mL); in assay [3] it was 1024 µM (≈ 420 µg/mL); in [4], 1024 µM (≈ 420 µg/mL); in assay [5] it was 1024 µM (≈ 420 µg/mL); in assay [6] it was 1024 µM (≈ 420 µg/mL). Moreover, the MIC in assay [7] is reported as 256 µM (≈ 105 µg/mL); in assay [8] it was 1024 µM (≈ 420 µg/mL); in assay [9], 1024 µM (≈ 420 µg/mL); in [10] it was 256 µM (≈ 105 µg/mL); in [11] it was 512 µM (≈ 210 µg/mL); in assay [12], 512 µM (≈ 210 µg/mL). Besides, the MIC is on record as 256 µM (≈ 105 µg/mL) in assay [13], 256 µM (≈ 105 µg/mL) in [14], 512 µM (≈ 210 µg/mL) in assay [15] and 1024 µM (≈ 420 µg/mL) in assay [16].

As for `NCCCC[C@H](NC(=O)[C@H](CCCCN)NC(=O)[C@H](Cc1c[nH]cn1)NC(=O)[C@H](CCCCN)NC(=O)[C@H](CCCCN)NC(=O)[C@H](Cc1c[nH]cn1)NC(=O)[C@H](CCCCN)NC(=O)[C@H](CCCCN)NC(=O)[C@H](Cc1c[nH]cn1)NC(=O)[C@H](CCCCN)NC(=O)[C@H](CCCCN)NC(=O)[C@H](Cc1c[nH]cn1)NC(=O)[C@H](CCCCN)NC(=O)[C@H](CCCCN)NC(=O)[C@H](Cc1c[nH]cn1)NC(=O)[C@H](CCCCN)NC(=O)[C@H](CCCCN)NC(=O)[C@@H](N)Cc1c[nH]cn1)C(N)=O` [(HKK)6] (H-HKKHKKHKKHKKHKKHKK-NH2), the MIC in assay [1] was 2 µM (≈ 4.76 µg/mL); in assay [2] it was 4 µM (≈ 9.51 µg/mL); in assay [3], 16 µM (≈ 38 µg/mL); in assay [4] it was 16 µM (≈ 38 µg/mL); in [5], 16 µM (≈ 38 µg/mL); in [6] it was 16 µM (≈ 38 µg/mL). The MIC in [7] worked out at 4 µM (≈ 9.51 µg/mL); in [8], 1 µM (≈ 2.38 µg/mL); in assay [9] it was 16 µM (≈ 38 µg/mL); in assay [10], 2 µM (≈ 4.76 µg/mL); in [11], 8 µM (≈ 19 µg/mL); in assay [12] it was 8 µM (≈ 19 µg/mL). In addition, the MIC was 2 µM (≈ 4.76 µg/mL) in assay [13], 2 µM (≈ 4.76 µg/mL) in [14], 8 µM (≈ 19 µg/mL) in assay [15] and 16 µM (≈ 38 µg/mL) in assay [16].
